Reference: patent publication US20030198636A1, “Process for inhibiting complement activation via the alternative pathway” (priority 1997, published 2003)
Residues, ends and D or L forms follow the SMILES beside them. No end group written: not given here.

Tests used:
human C3b = molecular target: T1, human C3b (Homo sapiens, UniProt P01024); test: C3b-properdin binding ELISA (properdin titration on immobilized C3b); conditions: FIG. 1, read-out: apparent binding constant (concentration of properdin needed to reach half-maximal binding to C3b)
T1 construct: The resulting convertase proteolytically modifies C3, producing the C3b fragment; purchased Calbiochem, San Diego, Calif; 204860
Description: Polystyrene microtiter plates were coated with human C3b (0.5 μg/50 μl per well) (Calbiochem, San Diego, Calif., Cat. No. 204860) in Veronal buffered saline (VBS): (5 mM diethyl barbiturate, 120 mM NaCl, 5 mM MgCl2, 5 mM EGTA) overnight at 4° C. After aspirating the C3b solution, wells were blocked with VBS containing 0.5% human serum albumin (HSA) (Sigma Chemical Company, St. Louis, Mo., Cat. No. A9511) for 2 hours at room temperature. Wells without C3b coating served as background controls. Aliquots of human properdin (or factor P) (Advanced Research Technology, San Diego, Calif., Cat. No. A139) at varying concentrations in blocking solution were added to the wells. Following a 2 hour incubation at room temperature, the wells were extensively rinsed with VBS.
C3b-bound properdin was detected by the addition of mouse monoclonal anti-human properdin antibody (detection antibody) (Quidel, San Diego, Calif., anti-human properdin monoclonal antibody P#2, Cat. No. A235) at 1:1000 dilution in blocking solution, which was allowed to incubate for 1 hour at room temperature. […] After incubation for 10 minutes at 25° C., the reaction of TMB was quenched by the addition of 100 μl of phosphoric acid, and the plate was read at 450 nm in a microplate reader (e.g., SPECTRA MAX 250, Molecular Devices, Sunnyvale, Calif.). […]

[1] = test system: Fcγ receptors on neutrophils; test: Chemiluminescence assay for superoxide production in diluted whole blood; format: cell-based; conditions: 5 μg/ml properdin alone
Description: Such agents may be screened for their ability to activate Fcγ receptors by a variety of assays known in the art. Since superoxide generation is one of the classic responses of neutrophils and other phagocytes to activation via Fcγ receptors (RII), a specific assay for superoxide release from cells in diluted whole blood was utilized to screen and evaluate agents and the possible role of Fcγ receptors in neutrophil activation by such an agent. Monoclonal antibody agents are generally ineffective aggregating agents upon binding to their antigen and thus ineffective to activate Fcγ receptors via immune complex formation. However, Fcγ activation was detected for a blocking anti-properdin monoclonal antibody as follows.
A chemiluminescence assay for superoxide production in diluted whole blood was performed (Tose, M. F. and A. Itamedani, 1992, Am. J. Clin. Pathol. 97:566-573). Fresh blood was collected by a finger prick and rapidly diluted 350-fold into phenol red-free RPMI-1640 media containing Pen-Strep which was buffered with 10 mM HEPES (pH 7.4) at 37° C. The media also contains 10 μM lucigenin (Sigma Chemical Co.), a compound which becomes chemiluminescent when reduced by superoxide. […] At regular intervals, chemiluminescence was monitored by transferring each sample into a liquid scintillation counter (Packard Model 1900 TR) operated in a single photon mode to determine the “cpm”.

[2] = molecular target: T2, properdin binding to C3bBb (Homo sapiens, UniProt P01024+P27918); test: C3b(Bb)-properdin binding inhibition in human serum (ELISA); conditions: peptides; tested as described in Example 2; read-out: IC50, blocking of C3bBb binding
T2 construct: The resulting convertase proteolytically modifies C3, producing the C3b fragment; tissue Sigma Chemical Company (serum)
Description: This assay was carried out as described in Example 1 above with some changes. Briefly, microtiter wells were coated with C3b, washed, blocked and incubated with various concentrations of normal human serum (NHS) (Sigma Chemical Company, Cat. No. S1764) diluted in blocking solution for 2 hours at room temperature. Under the conditions of this binding assay, factor B in serum will bind solid phase-bound C3b and, after cleavage by factor D in serum, generates C3bBb. Properdin is known to bind C3bBb with high affinity (Farries, T. C., P. J. Lachmann, and R. A. Harrison, 1988, Biochem. 252:47-54). Uncoated wells served as background controls. After washing, bound-properdin was detected with the anti-properdin antibody as described in Example 1 above.
To evaluate the effect of the blocking antibody to inhibit properdin binding to C3b(Bb), various concentrations of the blocking antibody described in Example 1 above were added to a fixed concentrations of serum (4% in blocking solution). The amount of properdin bound to C3b(Bb) was detected using the detection system described in Example 1 above.

[3] = molecular target: T3, binding of properdin to C3b coated plates (Homo sapiens, UniProt P01024); conditions: peptides at 0-200 μg/ml; cited from earlier work
T3 construct: The resulting convertase proteolytically modifies C3, producing the C3b fragment

[4] = test system: C5b-9 membrane-attack complex (MAC) formation via the alternative pathway; test: Alternative pathway-dependent MAC assay on LPS-coated wells (ELISA); format: biochemical, human; conditions: peptides; ELISA as described in Example 3; read-out: IC50, inhibition of MAC formation
Description: The binding data of Examples 1 and 2 above reveal that the properdin monoclonal antibody prevents the binding of properdin to C3b and the functional C3 convertase (C3bBb). […] The final end product of this pathway is the C5b-9 membrane-attack complex (MAC). To analyze the effects of the properdin antibody on MAC formation via the alternative pathways, an assay was utilized in which bacterial LPS was used as a substrate to initiate the alternative complement pathway cascade.
Microtiter wells were coated with LPS (2 μg/50 μl per well) in VBS overnight at 4° C. Uncoated wells served as background controls. After aspirating the LPS solution, wells were treated with blocking solution and incubated with various concentrations of normal human serum. Following a 3 hour incubation at 37° C., deposited MAC was detected with mouse anti-human soluble C5b-9 monoclonal antibody (Quidel, Cat. No. A239) using standard ELISA methodologies essentially as described in the Examples above. The effect of the blocking antibody on the MAC formation was evaluated by adding various concentrations of blocking antibody to a fixed concentration of serum (4% in blocking solution). The amount of inhibition of soluble C5b-9 formation was determined using the antibody detection system described in the Examples above.

Molecule: human properdin: human properdin (or factor P), Advanced Research Technology Cat. No. A139
- Kd (human C3b): ~0.001 µM
- superoxide levels over control levels [1]: not significantly elevated

Molecule: Ac-CRSPRWSLWS (N-terminus assumed) [peptide 2]
- IC50 [2]: 400 to 600 µM
- compete with properdin for C3 binding [3]: compete
- IC50 [4]: 335 µM

Molecule: CC(=O)NCC(=O)N[C@@H](CC(C)C)C(=O)N[C@@H](CS)C(=O)N[C@@H](CCC(N)=O)C(=O)N1CCC[C@H]1C(=O)N[C@@H](CS)C(=O)N[C@@H](CCCNC(=N)N)C(=O)N[C@@H](CO)C(=O)N1CCC[C@H]1C(=O)N[C@@H](CCCNC(=N)N)C(=O)O [Peptide 1] (Ac-GLCQPCRSPR-OH; N-terminus and C-terminus assumed)
- IC50 [2]: 400 to 600 µM
- compete with properdin for C3 binding [3]: compete
- IC50 [4]: 268 µM

Molecule: Ac-RYRRCVGWNG (N-terminus assumed) [peptide 3]
- IC50 [2]: 400 to 600 µM
- compete with properdin for C3 binding [3]: compete
- IC50 [4]: 242 µM
